Values quoted from earlier work, collected in patent US6090852A, “Substituted alpha-aminosulphonyl-acetohydroxamic acids as therapeutic agents” (Pfizer Inc, priority 1998, dated 2000).

Tested on: human ovarian carcinoma xenografts
Conditions: mice carrying human ovarian carcinoma xenografts; Cancer Res., 1993, 53, 2087

CNC(=O)[C@H](Cc1ccccc1)NC(=O)[C@H](CC(C)C)[C@H](CSc1cccs1)C(=O)NO [BB-94]
survival: prolong the survival | tumour burden: decrease the tumour burden
